In patent US11649255B2, “Indazoles as hematopoietic progenitor kinase 1 (HPK1) inhibitors and methods using same” (1st Biotherapeutics, Inc., priority 2020, dated 2023) one finds IC50 data, which are given here for 21 compounds.

Molecules are shown by their SMILES.

Sequence of recombinant human HPK1 (Q92918 whole entry): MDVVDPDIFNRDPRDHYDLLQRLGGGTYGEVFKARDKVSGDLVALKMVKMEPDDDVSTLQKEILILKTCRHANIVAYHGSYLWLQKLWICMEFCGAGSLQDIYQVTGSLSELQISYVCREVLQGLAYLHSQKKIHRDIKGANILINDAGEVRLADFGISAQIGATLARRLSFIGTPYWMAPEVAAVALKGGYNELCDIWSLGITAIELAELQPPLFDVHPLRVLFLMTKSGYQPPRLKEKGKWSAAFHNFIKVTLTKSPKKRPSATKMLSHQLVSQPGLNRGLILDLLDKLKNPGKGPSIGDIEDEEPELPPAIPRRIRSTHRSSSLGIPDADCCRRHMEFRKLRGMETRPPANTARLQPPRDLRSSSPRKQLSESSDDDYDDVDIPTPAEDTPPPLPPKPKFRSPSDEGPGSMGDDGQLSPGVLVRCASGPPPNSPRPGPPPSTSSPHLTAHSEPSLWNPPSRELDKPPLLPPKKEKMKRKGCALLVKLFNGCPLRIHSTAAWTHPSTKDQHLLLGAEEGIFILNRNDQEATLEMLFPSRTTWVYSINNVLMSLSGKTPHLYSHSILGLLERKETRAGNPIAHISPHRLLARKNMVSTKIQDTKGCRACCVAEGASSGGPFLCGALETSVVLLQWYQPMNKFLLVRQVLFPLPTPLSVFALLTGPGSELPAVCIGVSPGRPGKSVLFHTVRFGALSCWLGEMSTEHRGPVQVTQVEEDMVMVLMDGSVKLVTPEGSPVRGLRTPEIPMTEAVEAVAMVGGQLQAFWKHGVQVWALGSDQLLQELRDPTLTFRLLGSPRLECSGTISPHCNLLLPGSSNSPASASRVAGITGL

The test addresses recombinant human HPK1 (Homo sapiens (Human), UniProt Q92918). In words: HPK1 kinase assay (ADP-Glo). In kind it is biochemical. To be noted: 25 μM ATP, MBP substrate. An outline of the steps: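 Activity was read as ADP formed, detected by ADP-Glo luminescence after the reaction of 5 ng recombinant human HPK1 with MBP and ATP (stocks 0.5 μg/μl and 25 μM) for 40 min at 30 °C. Buffer was Tris pH 7.5 with MgCl2, BSA and DTT, with compound in 0.5% DMSO. IC50 came from inhibition curves.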
For `O=C(Nc1cn2cc(-c3c(C(F)F)ccc4[nH]ncc34)ccc2n1)C1CC1` [Example 249, N-(6-(5-(difluoromethyl)-1H-indazol-4-yl)imidazo[1,2-a]pyridin-2-yl)cyclopropanecarboxamide], the IC50 fell in the range of 101 to 500 nM.

For the compound `CC(C)N(C)c1c(F)c(Cl)c(-c2ccn3nc(NC(=O)[C@@H]4C[C@@H]4F)cc3c2)c2cn[nH]c12` [Example 622, (1S,2S)-N-(5-(5-chloro-6-fluoro-7-(isopropyl(methyl)amino)-1H-indazol-4-yl)pyrazolo[1,5-a]pyridin-2-yl)-2-fluorocyclopropane-1-carboxamide], the half-inhibitory concentration (IC50) is less than 100 nM. With `COc1c(F)c(Cl)c(-c2ccc3nc(NC(=O)[C@@H]4C[C@@H]4F)sc3c2)c2cn[nH]c12` [Example 80, (1S,2S)-N-(6-(5-chloro-6-fluoro-7-methoxy-1H-indazol-4-yl)benzo[d]thiazol-2-yl)-2-fluorocyclopropane-1-carboxamide] the figure was less than 100 nM; with `O=C(Nc1cn2cc(-c3c(C4CC4)c(F)cc4[nH]ncc34)ccc2n1)C1CC1` [Example 241, N-(6-(5-cyclopropyl-6-fluoro-1H-indazol-4-yl)imidazo[1,2-a]pyridin-2-yl)cyclopropanecarboxamide], greater than 1000 nM. Consider `CSc1c(F)c(F)c2[nH]ncc2c1-c1ccn2nc(NC(=O)[C@H]3C[C@H]3F)cc2c1` [Example 598, (1R,2R)-N-(5-(6,7-difluoro-5-(methylthio)-1H-indazol-4-yl)pyrazolo[1,5-a]pyridin-2-yl)-2-fluorocyclopropane-1-carboxamide], for which the half-maximal inhibitory concentration (IC50) is less than 100 nM. Under `CN(C)C(=O)c1ccn(-c2c(F)c(Cl)c(-c3ccn4nc(NC(=O)[C@@H]5C[C@@H]5F)cc4c3)c3cn[nH]c23)c1` [Example 649, 1-(5-chloro-6-fluoro-4-(2-((1S,2S)-2-fluorocyclopropane-1-carboxamido)pyrazolo[1,5-a]pyridin-5-yl)-1H-indazol-7-yl)-N,N-dimethyl-1H-pyrrole-3-carboxamide] stands less than 100 nM; under `C=CC(=O)Nc1cc(C)c(-c2ccc3nc(NC(=O)[C@@H]4C[C@@H]4F)cn3c2)c2cn[nH]c12` [Example 274, (1S,2S)-N-(6-(7-acrylamido-5-methyl-1H-indazol-4-yl)imidazo[1,2-a]pyridin-2-yl)-2-fluorocyclopropane-1-carboxamide], less than 100 nM. On to `CSc1c(F)c(C)c(-c2ccc3nc(NC(=O)[C@@H]4C[C@@H]4F)sc3c2)c2cn[nH]c12` [Example 64, (1S,2S)-2-fluoro-N-(6-(6-fluoro-5-methyl-7-(methylthio)-1H-indazol-4-yl)benzo[d]thiazol-2-yl)cyclopropane-1-carboxamide], for which the IC50 was less than 100 nM. With `CC(=O)c1c(F)c(C)c(-c2ccc3nc(NC(=O)[C@@H]4C[C@@H]4F)sc3c2)c2cn[nH]c12` [Example 131, (1S,2S)-N-(6-(7-acetyl-6-fluoro-5-methyl-1H-indazol-4-yl)benzo[d]thiazol-2-yl)-2-fluorocyclopropane-1-carboxamide] the figure was 101 to 500 nM; with `C=Cc1c(F)c(C)c(-c2ccc3nc(NC(=O)[C@@H]4C[C@@H]4F)sc3c2)c2cn[nH]c12` [Example 62, (1S,2S)-2-fluoro-N-(6-(6-fluoro-5-methyl-7-vinyl-1H-indazol-4-yl)benzo[d]thiazol-2-yl)cyclopropane-1-carboxamide], 101 to 500 nM; with `Cc1c(F)c(Cl)c2[nH]ncc2c1-c1ccc2nc(NC(=O)[C@@H]3C[C@@H]3F)cn2c1` [Example 260, (1S,2S)-N-(6-(7-chloro-6-fluoro-5-methyl-1H-indazol-4-yl)imidazo[1,2-a]pyridin-2-yl)-2-fluorocyclopropane-1-carboxamide], less than 100 nM. With `CCOc1c(F)c(CC)c(-c2ccc3nc(NC(=O)[C@@H]4C[C@@H]4F)cn3c2)c2cn[nH]c12` [Example 318, (1S,2S)-N-(6-(7-ethoxy-5-ethyl-6-fluoro-1H-indazol-4-yl)imidazo[1,2-a]pyridin-2-yl)-2-fluorocyclopropane-1-carboxamide] the figure was less than 100 nM. As for `O=C(Nc1cc2cc(-c3c(Cl)c(F)c(C4CC(O)CO4)c4[nH]ncc34)ccn2n1)[C@@H]1C[C@@H]1F` (stereo partly drawn) [Example 658, (1S,2S)-N-(5-(5-chloro-6-fluoro-7-(4-hydroxytetrahydrofuran-2-yl)-1H-indazol-4-yl)pyrazolo[1,5-a]pyridin-2-yl)-2-fluorocyclopropane-1-carboxamide], the IC50 is less than 100 nM.

Consider `Cc1c(F)c(OCCOC(N)=O)c2[nH]ncc2c1-c1ccn2nc(NC(=O)[C@@H]3C[C@@H]3F)cc2c1` [Example 535, 2-((6-fluoro-4-(2-((1S,2S)-2-fluorocyclopropane-1-carboxamido)pyrazolo[1,5-a]pyridin-5-yl)-5-methyl-1H-indazol-7-yl)oxy)ethyl carbamate], for which the IC50 was less than 100 nM.

With `CN(c1ccccn1)c1c(F)c(Cl)c(-c2ccc3nc(NC(=O)[C@@H]4C[C@@H]4F)cn3c2)c2cn[nH]c12` [Example 337, (1S,2S)-N-(6-(5-chloro-6-fluoro-7-(methyl(pyridin-2-yl)amino)-1H-indazol-4-yl)imidazo[1,2-a]pyridin-2-yl)-2-fluorocyclopropane-1-carboxamide], the IC50 was less than 100 nM.

Turning to `CNC(=O)OCCN(C)c1c(F)c(C)c(-c2ccc3nc(NC(=O)[C@@H]4C[C@@H]4F)sc3n2)c2cn[nH]c12` [Example 202, 2-((6-fluoro-4-(2-((1S,2S)-2-fluorocyclopropane-1-carboxamido)thiazolo[5,4-b]pyridin-5-yl)-5-methyl-1H-indazol-7-yl)(methyl)amino)ethyl methylcarbamate], the IC50 is less than 100 nM.

As to `O=C(Nc1cn2cc(-c3c(Cl)c(F)c(NCC4CC4)c4[nH]ncc34)ccc2n1)[C@@H]1C[C@@H]1F` [Example 421, (1S,2S)-N-(6-(5-chloro-7-((cyclopropylmethyl)amino)-6-fluoro-1H-indazol-4-yl)imidazo[1,2-a]pyridin-2-yl)-2-fluorocyclopropane-1-carboxamide], the IC50 is less than 100 nM. On to `CSc1c(F)c(C)c(-c2ccc3nc(NC(=O)[C@@H]4C[C@@H]4F)cn3c2)c2cn[nH]c12` [Example 269, (1S,2S)-2-fluoro-N-(6-(6-fluoro-5-methyl-7-(methylthio)-1H-indazol-4-yl)imidazo[1,2-a]pyridin-2-yl)cyclopropane-1-carboxamide], for which the IC50 is less than 100 nM. Under `CC(=O)Nc1c(F)c(C)c(-c2ccc3nc(NC(=O)[C@@H]4C[C@@H]4F)sc3c2)c2cn[nH]c12` [Example 113, (1S,2S)-N-(6-(7-acetamido-6-fluoro-5-methyl-1H-indazol-4-yl)benzo[d]thiazol-2-yl)-2-fluorocyclopropane-1-carboxamide] stands less than 100 nM. Consider `CC(C)Oc1c(F)c(Cl)c(-c2ccn3nc(NC(=O)[C@@H]4C[C@@H]4F)cc3c2)c2cn[nH]c12` [Example 650, (1S,2S)-N-(5-(5-chloro-6-fluoro-7-isopropoxy-1H-indazol-4-yl)pyrazolo[1,5-a]pyridin-2-yl)-2-fluorocyclopropane-1-carboxamide], for which the IC50 is less than 100 nM. Under `CSc1n[nH]c2cc(F)c(C)c(-c3ccn4nc(NC(=O)[C@@H]5C[C@@H]5F)cc4c3)c12` [Example 471, (1S,2S)-2-fluoro-N-(5-(6-fluoro-5-methyl-3-(methylthio)-1H-indazol-4-yl)pyrazolo[1,5-a]pyridin-2-yl)cyclopropane-1-carboxamide] stands 101 to 500 nM.
